{"source": "patent EP0280603A1", "about": "“Absolute S confirmation enantiomers of amide derivatives of 3-aminoquinuclidine, process for their preparation and their therapeutical use” (DELALANDE S.A., priority 1987, dated 1988)", "key": {"[1]": {"tested_on": "vomissements induits par le cisplatine", "assay": "Oral antiemetic activity against cisplatin-induced vomiting in the dog", "type": "in vivo, chien", "conditions": "for VOMISSEMENTS % DE DIMINUTION EN NOMBRE / VOMISSEMENTS % DE DIMINUTION EN TOUT OU RIEN / VOMISSEMENTS NOMBRE MOYEN: 6 h observation, 4 dogs; for VOMISSEMENTS NOMBRE MOYEN: control 10,8", "excerpt": "A titre d'exemple, on étudie ci-après l'activité antiémétique par voie orale du chlorhydrate du N-(quinuclidinyl-3) amino-4 chloro-5 méthoxy-2 benzamide, sous la forme du mélange racémique (code MD 780209), de l'énantiomère lévogyre de configuration S (code MD 200054) et de l'énantiomère dextrogyre de configuration R (code MD 200051), vis-à-vis des vomissements induits par le cisplatine chez le chien.\nLa méthode est dérivée de celle décrite par J.A. GYLYS et coll. (Res. Commun. Chem. Pathol. Pharmacol. 1979, 23, n° 1, p. 61-68). Les vomissements sont induits par injection intraveineuse de cisplatine (DCI) à la dose de 3 mg/kg chez des chiens tout-venants, mâle ou femelle, de poids compris entre 10 et 16 kg, à la diète hydrique depuis 24 heures.\nLes composés à tester sont administrés par voie orale 60 minutes après l'injection de cisplatine.\nLes animaux sont alimentés 1 h 30 après le traitement. La durée d'observation est de 6 heures après l'injection de cisplatine."}, "[2]": {"assay": "Side effects and toxicity at the active doses (no method described)", "type": "in vivo", "conditions": "in words, compared with the dextrorotatory enantiomer"}, "[3]": {"conditions": "dog, 15 μ g/kg oral 60 min after cisplatin 3 mg/kg i.v."}, "[4]": {"conditions": "dog, 30 μ g/kg oral 60 min after cisplatin 3 mg/kg i.v."}, "[5]": {"conditions": "dog, 7,5 μ g/kg oral 60 min after cisplatin 3 mg/kg i.v."}}, "data": [{"smiles": "COc1cc(N)c(Cl)cc1C(=O)NC1CN2CCC1CC2", "note": "(racemic) [MD 780209, N-(quinuclidinyl-3) amino-4 chloro-5 méthoxy-2 benzamide, reference compound]", "values": [{"measurement": "VOMISSEMENTS % DE DIMINUTION EN NOMBRE", "setting": "[1]; [3]", "value": "81,4%"}, {"measurement": "VOMISSEMENTS % DE DIMINUTION EN TOUT OU RIEN", "setting": "[1]; [3]", "value": 25, "unit": "%"}, {"measurement": "VOMISSEMENTS NOMBRE MOYEN", "setting": "[1]; [3]", "value": 2}]}, {"smiles": "COc1cc(N)c(Cl)cc1C(=O)N[C@H]1CN2CCC1CC2", "note": "[MD 200051, N-(quinuclidinyl-3) amino-4 chloro-5 méthoxy-2 benzamide]", "values": [{"measurement": "VOMISSEMENTS % DE DIMINUTION EN NOMBRE", "setting": "[1]; [4]", "value": "34,9%"}, {"measurement": "VOMISSEMENTS % DE DIMINUTION EN TOUT OU RIEN", "setting": "[1]; [4]", "value": 0, "unit": "%"}, {"measurement": "VOMISSEMENTS NOMBRE MOYEN", "setting": "[1]; [4]", "value": 7}]}, {"smiles": "COc1cc(N)c(Cl)cc1C(=O)N[C@@H]1CN2CCC1CC2", "note": "[MD 200054, N-(quinuclidinyl-3) amino-4 chloro-5 méthoxy-2 benzamide]", "values": [{"measurement": "effets secondaires", "setting": "[2]", "value": "moins d'effets secondaires"}, {"measurement": "VOMISSEMENTS % DE DIMINUTION EN NOMBRE", "setting": "[1]; [5]", "value": "95,3%"}, {"measurement": "VOMISSEMENTS % DE DIMINUTION EN TOUT OU RIEN", "setting": "[1]; [5]", "value": 75, "unit": "%"}, {"measurement": "VOMISSEMENTS NOMBRE MOYEN", "setting": "[1]; [5]", "value": "0,5"}, {"measurement": "inhiber les vomissements induits par des drogues anticancéreuses telles que le cisplatine", "setting": "[1]; in words, compared with the antipode MD 200051 and the corresponding racemate", "value": "beaucoup plus actif"}]}]}
